Measurements reported in EP4567031A1, “HPK1 INHIBITOR, PREPARATION METHOD THEREFOR, AND USE THEREOF” (Beijing Earthwise Technology Co., Ltd., priority 2022, dated 2024).
Read-outs that look alike come from different tables or passages of the source.

Assays:
HPK1 = HPK1 (Homo sapiens, UniProt Q92918); assay: HPK1 HTRF kinase assay; assay type: biochemical; conditions: 1000 µM ATP, 50 nM HPK1, STK1 substrate
Description: The reaction was initiated by adding 50 nM HPK1. After 120 minutes of reaction, the assay was terminated by adding 10 µL of Detection Mix.
The ratio of the signal at 665 nm to the signal at 615 nm was converted to the percentage of inhibition. Inhibition % = (maximum value - sample value) / (maximum value - minimum value)×100. The minimum value refers to the value measured in a well without enzyme but with DMSO and substrate, and the maximum value refers to the value measured in a well with DMSO, enzyme and substrate. IC50 values were calculated by XLFit (version 5.3.1.3) in Excel. Equation: Y = Bottom + (Top - Bottom) / (1 + (IC50/X) ^ HillSlope).

human Pan T cells = assay: Human Pan T cell IL-2 ELISA; assay type: cell-based; conditions: read-out: IL-2 release, EC50
Description: A compound was dissolved in DMSO to 10 mM, and then diluted three-fold with DMSO to 9 dosages in a 96-well plate. Then, 10 µL of the diluted compound sample was transferred to a 96-well plate with 90 µL of cell culture medium, and the plate was shaken for 5 minutes. Then, 5 µL of the diluted compound sample was transferred to a 96-well plate with 120 µL of cell culture medium, and the plate was shaken for 5 minutes. According to the experimental design diagram, 50 µL of the diluted compound sample was transferred to a cell plate. Final concentrations of the compound in this assay were 10000.00, 5000, 2500, 1250, 625, 312.5, 156.25, 78.125 and 39.063 nM.
The assay was conducted in a 96-well plate. On the first day of the assay, Anti-CD3 was added to the 96-well plate and incubated in a 4 °C refrigerator overnight. On the second day of the assay, human Pan T cells were recovered, centrifuged and counted. The cell density was adjusted to 1*10^6 cells/ml. Then, 100 µL of cells were added to the 96-well plate washed with PBS and added with Anti-CD3; according to the experimental design diagram, 50 µL of diluted Anti-CD28 and 50 µL of the diluted compound were added to each well, centrifuged, and the cell plate was placed and incubated in an incubator for 48 hours; after 48 hours, the plate was centrifuged and the supernatant was collected for IL-2 ELISA.
The signal value of light absorption was converted into a multiple. Multiple = sample value/the average value of control wells. The average value of control wells refers to the value measured in wells with DMSO added. EC50 values were calculated by XLFit (version 5.3.1.3) in Excel. Equation: Y=Bottom + (Top-Bottom) / (1 + (EC50/X) ^ HillSlope). Table 6. Results of cellular activity of the compounds

[1] = Homo sapiens, T-cell, 48 h, Anti-CD3 and Anti-CD28, supernatant IL-2 ELISA

Chain of HPK1 (Q92918 whole entry, species assumed): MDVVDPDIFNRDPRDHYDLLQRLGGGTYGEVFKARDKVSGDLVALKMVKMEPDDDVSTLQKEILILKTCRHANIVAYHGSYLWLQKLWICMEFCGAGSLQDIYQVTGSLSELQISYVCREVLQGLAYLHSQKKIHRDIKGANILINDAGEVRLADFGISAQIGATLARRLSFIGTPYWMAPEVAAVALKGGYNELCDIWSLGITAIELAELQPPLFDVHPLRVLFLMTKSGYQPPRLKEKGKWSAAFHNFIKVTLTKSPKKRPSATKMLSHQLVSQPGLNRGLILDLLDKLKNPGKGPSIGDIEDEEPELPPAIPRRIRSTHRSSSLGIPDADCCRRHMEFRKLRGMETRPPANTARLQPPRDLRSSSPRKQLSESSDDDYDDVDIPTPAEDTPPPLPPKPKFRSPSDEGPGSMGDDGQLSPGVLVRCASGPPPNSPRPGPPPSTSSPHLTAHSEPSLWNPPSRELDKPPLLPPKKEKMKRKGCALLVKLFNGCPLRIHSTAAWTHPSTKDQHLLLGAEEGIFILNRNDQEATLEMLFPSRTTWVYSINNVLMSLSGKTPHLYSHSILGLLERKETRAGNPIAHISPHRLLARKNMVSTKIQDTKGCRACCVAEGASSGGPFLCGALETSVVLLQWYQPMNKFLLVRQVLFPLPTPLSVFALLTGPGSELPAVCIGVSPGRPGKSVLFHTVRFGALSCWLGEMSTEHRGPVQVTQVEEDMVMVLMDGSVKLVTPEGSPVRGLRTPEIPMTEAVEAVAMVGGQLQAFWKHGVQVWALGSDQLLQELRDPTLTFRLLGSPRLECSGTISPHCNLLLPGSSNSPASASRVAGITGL

EC50 (human Pan T cells; [1]) [nM]	Compound	further results
	Cc1ccn2c(-c3cc4c(c5c3CNC5=O)Nc3ccc(N5CCOC(C(C)(C)O)C5)cc3C4(C)C)cnc2c1F (single isomer, unassigned) [Example 89]	IC50 (HPK1; HPK1, IC50 (nM)): 8.13 nM
	COC1CCCn2c(-c3cc4c(c5c3CNC5=O)Nc3ccc(N5CCOCC5)cc3C4(C)C)cnc21 (single isomer, unassigned) [Example 91]	IC50 (HPK1; HPK1, IC50 (nM)): 4.24 nM
2.11	CC1(C)c2cc(N3CCOC(C(C)(C)O)C3)ccc2Nc2c1cc(-c1cnc3cccnn13)c1c2C(=O)NC1 (stereo not drawn) [Example 19]	IC50 (HPK1; read-out: HPK1, IC50): 6.31 nM
2.2	CC1(C)c2cc(N3CCOC(C(C)(C)O)C3)ccc2Nc2c1cc(-c1cnn3cccnc13)c1c2C(=O)NC1 (stereo not drawn) [Example 22]	IC50 (HPK1; read-out: HPK1, IC50): 11.2 nM
< 1.5	CC1(C)c2cc(N3CCOC(C(C)(C)O)C3)ccc2Nc2c1cc(-c1cnc3c(C#N)cccn13)c1c2C(=O)NC1 (stereo not drawn) [Example 23]	IC50 (HPK1; read-out: HPK1, IC50): 3.65 nM
1.83	COc1ccnn2c(-c3cc4c(c5c3CNC5=O)Nc3ccc(N5CCOC(C(C)(C)O)C5)cc3C4(C)C)cnc12 (stereo not drawn) [Example 24]	IC50 (HPK1; read-out: HPK1, IC50): 11.8 nM
14.9	CC1(C)c2cc(N3CCOCC3)ncc2Nc2c1cc(-c1cnn3cccnc13)c1c2C(=O)NC1 [Example 26]	IC50 (HPK1; read-out: HPK1, IC50): 14.5 nM
1.79	COc1cccc2c(-c3cc4c(c5c3CNC5=O)Nc3cnc(N5CCOCC5)cc3C4(C)C)cnn12 [Example 27]	IC50 (HPK1; read-out: HPK1, IC50): 11.7 nM
95.9	CC1(C)c2cc(N3CCOCC3)cnc2Nc2c1cc(-c1cnn3cccnc13)c1c2C(=O)NC1 [Example 28]	IC50 (HPK1; read-out: HPK1, IC50): 21.5 nM
	Cc1ccnn2c(-c3cc4c(c5c3CNC5=O)Nc3ccc(N5CCOC(C(C)(C)O)C5)cc3C4(C)C)cnc12 (stereo not drawn) [Example 33]	IC50 (HPK1; read-out: HPK1, IC50): 11.4 nM
	CC1(C)c2cc(-c3cnn4cccnc34)c3c(c2Nc2cccc(OC4CCNC4)c21)C(=O)NC3 (stereo not drawn) [Example 58]	IC50 (HPK1; read-out: HPK1, IC50): 4150 nM
	COc1ccnc2c(-c3cc4c(c5c3CNC5=O)Nc3ccc(N5CCOCC5)cc3C4(C)C)cnn12 [Example 66]	IC50 (HPK1; read-out: HPK1, IC50): 11.1 nM
73	CC1(C)c2cc(N3CCOCC3)ccc2Nc2c1cc(-c1cnc3c(C4COC4)nccn13)c1c2C(=O)NC1 [Example 188]	
5.7	COc1ccn2c(-c3cc4c(c5c3CNC5=O)Nc3ccc(N5CCOCC5)cc3C4(C)C)cnc2n1 [Example 189]	
19	CC1(C)c2cc(N3CCOCC3)ccc2Nc2c1cc(-c1cnc3c(C#N)nccn13)c1c2C(=O)NC1 [Example 192]	
9.5	CC1(C)c2cc(N3CCOCC3)ccc2Nc2c1cc(-c1cnc3c(F)c(C(F)F)ccn13)c1c2C(=O)NC1 [Example 193]	
4.3	COc1nccn2c(-c3cc4c(c5c3CNC5=O)Nc3ccc(N5CCN6CCOCC6C5)cc3C4(C)C)cnc12 (stereo not drawn) [Example 194]	
3.7	COCC1CN(c2ccc3c(c2)C(C)(C)c2cc(-c4cnc5c(OC)nccn45)c4c(c2N3)C(=O)NC4)CCO1 (stereo not drawn) [Example 195]	
	CO[C@H]1CCCn2c(-c3cc4c(c5c3CNC5=O)Nc3ccc(N5CC6CCC(C5)O6)cc3C4(C)C)cnc21 [Example 196]	EC50 (human Pan T cells; Anti-CD3 and Anti-CD28, 48 hours, supernatant IL-2 ELISA): 27 nM
11	CC1(C)c2cc(N3CCOCC3)ccc2Nc2c1cc(-c1cnc3nc(C(F)F)ccn13)c1c2C(=O)NC1 [Example 197]	
5.3	CC1(C)c2cc(N3CCOCC3)ccc2Nc2c1cc(-c1cnc3c(F)c(C#N)ccn13)c1c2C(=O)NC1 [Example 198]	
24	CC1(C)c2cc(N3CCOCC3)ccc2Nc2c1cc(-c1cnc3c(OC4CC4)nccn13)c1c2C(=O)NC1 [Example 199]	
1.4	COCC1(O)CCN(c2ccc3c(c2)C(C)(C)c2cc(-c4cnc5c(OC)nccn45)c4c(c2N3)C(=O)NC4)CC1 [Example 200]	
2.7	COc1nccn2c(-c3cc4c(c5c3CNC5=O)Nc3ccc(N5CCOC6(CC6)C5)cc3C4(C)C)cnc12 [Example 201]	
6.6	CC1(C)c2cc(N3CCOC(C4(O)CC4)C3)ccc2Nc2c1cc(-c1cnc3cc(C(F)F)ccn13)c1c2C(=O)NC1 (stereo not drawn) [Example 205]	
99	CC1(C)c2cc(N3CCOCC3)ccc2Nc2c1cc(-c1cnc3cc(N4CCC4)ccn13)c1c2C(=O)NC1 [Example 206]	

EC50 (human Pan T cells; [1]) [nM]	Compound	further results
23	CC1(C)c2cc(N3CCOCC3)ccc2Nc2c1cc(-c1cnc3cc(N4CC(F)C4)ccn13)c1c2C(=O)NC1 [Example 207]	
16	CC(C)(O)c1ccn2c(-c3cc4c(c5c3CNC5=O)Nc3ccc(N5CCOCC5)cc3C4(C)C)cnc2c1 [Example 208]	
3.3	COc1c(F)ccn2c(-c3cc4c(c5c3CNC5=O)Nc3ccc(N5CCOCC5)cc3C4(C)C)cnc12 [Example 209]	
55	CC1(C)c2cc(N3CCOCC3)ccc2Nc2c1cc(-c1cnc3c(N4CCC4)nccn13)c1c2C(=O)NC1 [Example 211]	
5.4	C#Cc1ccn2c(-c3cc4c(c5c3CNC5=O)Nc3ccc(N5CCOCC5)cc3C4(C)C)cnc2c1 [Example 216]	
19	CC1(C)c2cc(N3CCOCC3)ccc2Nc2c1cc(-c1cnc3cc(OC4COC4)ccn13)c1c2C(=O)NC1 [Example 217]	
6.4	CC1(C)c2cc(N3CCOCC3)ccc2Nc2c1cc(-c1cnc3c(C(F)F)nccn13)c1c2C(=O)NC1 [Example 222]	
33	CC1(C)c2cc(N3CCOCC3)ccc2Nc2c1cc(-c1cnc3c(OC4CNC4)nccn13)c1c2C(=O)NC1 [Example 224]	
8.1	COc1ccn2c(-c3cc4c(c5c3CNC5=O)Nc3ccc(N5CCOCC5)cc3C4(C)C)cnc2c1F [Example 225]	
8.7	CC1(C)c2cc(N3CCOCC3)ccc2Nc2c1cc(-c1cnn3cc(C#N)ccc13)c1c2C(=O)NC1 [Example 237]	
58	COc1nccn2c(-c3cc4c(c5c3CNC5=O)Nc3ccc(N5CCOCC5=O)cc3C4(C)C)cnc12 [Example 238]	
9.2	CC1(C)c2cc(N3CCOCC3)ccc2Nc2c1cc(-c1cnc3cc(C#N)cnn13)c1c2C(=O)NC1 [Example 246]	
9.2	CC1(C)c2cc(N3CCOCC3)ccc2Nc2c1cc(-c1cnc3nc(N4CC(F)C4)ccn13)c1c2C(=O)NC1 [Example 247]	
1.9	Cn1cnc2c(-c3cc4c(c5c3CNC5=O)Nc3ccc(N5CCOCC5)cc3C4(C)C)cncc21 [Example 248]	
4.7	CC1(C)c2cc(N3CCOCC3)ccc2Nc2c1cc(-c1nnc3cc(C#N)ccn13)c1c2C(=O)NC1 [Example 249]	
3.1	CC1(C)c2cc(N3CCOCC3)ccc2Nc2c1cc(-c1cnc3ncccn13)c1c2C(=O)NC1 [Example 250]	
6.4	Cc1c(-c2cc3c(c4c2CNC4=O)Nc2ccc(N4CCOCC4)cc2C3(C)C)cnc2c1NCCO2 [Example 251]	
54	CC1(C)c2cc(N3CCOCC3)ccc2Nc2c1cc(-c1cnc3nc(N4CC(O)C4)ccn13)c1c2C(=O)NC1 [Example 253]	
28	CC1(C)c2cc(N3CCOCC3)ccc2Nc2c1cc(-c1cnc3nc(C4CC4)ccn13)c1c2C(=O)NC1 [Example 254]	
5	COc1nccn2c(-c3cc4c(c5c3CNC5=O)Nc3ccc(C5CNC(=O)C5)cc3C4(C)C)cnc12 (stereo not drawn) [Example 255]	
16	CC1(O)CCN(c2ccc3c(c2)C(C)(C)c2cc(-c4cnc5nc(C(F)F)ccn45)c4c(c2N3)C(=O)NC4)CC1 [Example 256]	
154	CN(C)C(=O)c1ccc2c(c1)C(C)(C)c1cc(-c3cnc4nc(C(F)F)ccn34)c3c(c1N2)C(=O)NC3 [Example 257]	
6.1	CC1(C)c2cc(N3CCOCC3)ccc2Nc2c1cc(-c1cnc3c(=O)n(C(F)F)ccn13)c1c2C(=O)NC1 [Example 258]	
13	COc1nccn2c(-c3cc4c(c5c3CCNC5=O)Nc3ccc(N5CCOCC5)cc3C4(C)C)cnc12 [Example 280]	
44	CC1(C)c2cc(N3CCOCC3)ccc2Nc2c1cc(-c1cnc3nc(C(F)F)ccn13)c1c2C(=O)NCC1 [Example 282]	

Compound	EC50 (human Pan T cells; [1]) [nM]	further results
Cc1ccn2c(-c3cc4c(c5c3CNC5=O)Nc3ccc(N5CCOC(C(C)(C)O)C5)cc3C4(C)C)cnc2c1F (single isomer, unassigned) [Example 88]	12.3	IC50 (HPK1; HPK1, IC50 (nM)): 11.6 nM
COC1CCCn2c(-c3cc4c(c5c3CNC5=O)Nc3ccc(N5CCOCC5)cc3C4(C)C)cnc21 (single isomer, unassigned) [Example 90]	6.3	IC50 (HPK1; read-out: HPK1, IC50): 6.72 nM
COc1nccn2c(-c3cc4c(c5c3CNC5=O)Nc3ccc(N5C6CCC5COC6)cc3C4(C)C)cnc12 [Example 232]	11	
